The text below walks through data of the NIST ThermoML archive (doi:10.1021/je060078g).

± gives the expanded uncertainty stated by the source.

The conditions of this series: Liquid; pulse-heating method.
In the case of `O=C(O)CCCCCCc1ccccc1` [7-phenylheptanoic acid], the Critical pressure is 2470 ± 90 kPa and the Critical temperature is 798 ± 8 K.

In the case of `O=C(O)Cc1ccccc1` [phenylacetic acid], the Critical pressure is 3950 ± 140 kPa and the Critical temperature came to 766 ± 8 K.

As to `O=C(O)CCCCCc1ccccc1` [6-phenylhexanoic acid], the Critical pressure is recorded as 2600 ± 90 kPa and the Critical temperature amounted to 794 ± 8 K.

In the case of `O=C(O)CCCCc1ccccc1` [5-phenylvaleric acid], the Critical pressure worked out at 2950 ± 100 kPa and the Critical temperature came to 790 ± 8 K.

With `O=C(O)CCc1ccccc1` [3-phenylpropanoic acid], the Critical pressure came out at 3460 ± 120 kPa and the Critical temperature was found to be 776 ± 8 K.

Regarding `O=C(O)CCCc1ccccc1` [4-phenylbutanoic acid], the Critical pressure is on record as 3210 ± 110 kPa and the Critical temperature is reported as 783 ± 8 K.
